What all share (format): functional, cell-based
One experiment relates to HT-29. In words: Cytotoxicity against human HT-29 cells after 48 hrs by MTT assay. In general terms: Tetrazolium dyes change colour on reduction, which living cells bring about.
The test system of another experiment is MCF7. The experiment in a line: Cytotoxicity against human MCF7 cells after 48 hrs by MTT assay. Particulars: MCF7, 48 h; call rule not given here.
The test system of the next experiment is HepG2. The experiment in a line: Cytotoxicity against human HepG2 cells after 48 hrs by MTT assay.
In the next experiment the test system is A549. The experiment in a line: Cytotoxicity against human A549 cells after 48 hrs by MTT assay. The following applies: A549, 48 h.
The test system of a further experiment is A-431. In words: Cytotoxicity against human A431 cells after 48 hrs by MTT assay.
The mark [1] stands for this setting: Homo sapiens, HT-29, 48 h, read-out: IC50.
The mark [2] stands for this setting: Homo sapiens, HepG2, 48 h, read-out: IC50.

Values after ≈ are worked out from the molar mass of the structure shown.

Usually IC50 stands for the concentration that inhibits the measured activity by half.

For the molecule `CC(CO)c1cc2c(c(O)c1O)C[C@@]1(O)CCCC(C)(C)[C@@H]1CC2` (stereo not given in full), the 50% inhibitory concentration (IC50) in the experiment with HT-29 (setting [1]) is 16.2 µg/mL (≈ 48.5 µM); with MCF7 it was 16 µg/mL (≈ 47.7 µM); in the experiment with HepG2 (setting [2]), 18.6 µg/mL (≈ 55.7 µM); in the experiment on A549, 18.6 µg/mL (≈ 55.7 µM); in the experiment with A-431, “Not Active”.

As for `CC(CO)c1cc(O)c2c(c1)[C@@H](O)C[C@H]1C(C)(C)CCC[C@]1(O)C2` (stereo not given in full), the IC50 in the experiment on HT-29 (setting [1]) is 14.6 µg/mL (≈ 43.6 µM); with MCF7, 15.8 µg/mL (≈ 47.4 µM); in the experiment with HepG2 (setting [2]), 34.4 µg/mL (≈ 103 µM); with A549 it was 21.4 µg/mL (≈ 63.9 µM); in the experiment with A-431, “Not Active”.

In the case of `CC(CO)c1cc(O)c2c(c1)CC[C@H]1C(C)(C)CCC[C@]1(O)C2` (stereo not given in full), the IC50 entry was “Not Active” with HT-29 (ht-29); 80.8 µg/mL (≈ 254 µM) in the experiment with MCF7; “Not Active” in the experiment on HepG2 (hepg2); 43.6 µg/mL (≈ 137 µM) in the experiment with A549; “Not Active” in the experiment with A-431.

For the origin of these results see ChEMBL document CHEMBL1155189, “Bioactivity-guided isolation of cytotoxic constituents from stem-bark of Premna tomentosa” (Bioorg Med Chem Lett, 2009).
